Assay results from patent US20110293559A1, “CATABOLIC AGENTS” (priority 2008, published 2011).
Where two headings read alike, the source gives them in different places.

Experiments:
[1] = tested on: immature articular cartilage explants; experiment: Disc-core cartilage explant integration culture with histology; assay type: cell-based
Text: (§1) Six millimetre diameter cartilage explants from immature articular cartilage containing 3 mm diameter inner cores, both created using punch biopsy tools (Steifel), were placed in Dulbecco's modified Eagles medium (DMEM) culture medium containing various concentrations of interleukin-1β or tumour necrosis factor α (TNFα; Peprotech), or, the culture medium without cytokine as a control. The medium was removed after the nominated time and washed once with DMEM then replaced with DMEM medium containing 50 μg/ml ascorbate, 10 mM HEPES, gentamycin and supplemented with 1× insulin-transferrin-selenium (ITS; Sigma). For qPCR studies the explants were first allowed to equilibriate in serum containing medium for 3 days, then washed 3 times in serum-free DMEM before the treatment as described above. For long term culture following 2 hour cytokine treatment explants were treated immediately following their excision from the joint, then cultured for 4 weeks in serum-free DMEM containing ITS, ascorbate, HEPES and gentamycin. The culture medium was changes 3 times a week.
Four week core and disc cultures were fixed with neutral-buffered formyl-saline and left overnight at 4 C. The explants were then processed for wax embedding. Ten micron sections were cut using a microtome, and sections dewaxed and rehydrated in a descending series of alcohols. Sections were stained with haemotoxylin (1 minute), washed in water and then stained with Safranin-O (2 minutes) washed briefly in water and then dehydrated, dipped in xylene and then mounted in DPX liquid under coverslips.

[2] = tested on: immature articular cartilage explants; experiment: Mechanical push-out test of disc/ring interface; assay type: cell-based; conditions: FIG. 2, 3 weeks in culture, n=4
Text: as §1, with “For long term culture following 2 hour cytokine treatment explants were treated immediately following their excision from the joint, then cultured for 4 weeks in serum-free DMEM containing ITS, ascorbate, HEPES and gentamycin. The culture medium was changes 3 times a week.” left out
Adhesive properties of the disc/ring interface after 3-weeks in culture were assessed using a push-out test (n=4). Thickness of the sample was measured using calipers. […] A computer activated micro-stepper controlled the displacement of the push-out rod (0.05 mm/min), whilst a load cell (100N) coupled to the rod measured the push-out force. The adhesive strength was calculated from the maximum force measured at failure per unit of interfacial area.

MMP13 gene expression = experiment: qPCR MMP13 gene expression in cartilage explants; assay type: cell-based
Method: The medium was removed after the nominated time and washed once with DMEM then replaced with DMEM medium containing 50 μg/ml ascorbate, 10 mM HEPES, gentamycin and supplemented with 1× insulin-transferrin-selenium (ITS; Sigma). For qPCR studies the explants were first allowed to equilibriate in serum containing medium for 3 days, then washed 3 times in serum-free DMEM before the treatment as described above. For long term culture following 2 hour cytokine treatment explants were treated immediately following their excision from the joint, then cultured for 4 weeks in serum-free DMEM containing ITS, ascorbate, HEPES and gentamycin. The culture medium was changes 3 times a week.
Quantitative polymerase chain reaction (qPCR) using the fluorescent dye SYBR Green (Eurogentec, Belgium) was used to determine the absolute expression levels of ADAMTS4 and MMP-13 between explants. Real-time PCR reactions were carried out in 25 μl volumes in a 96-well plate (Applied Biosystems™) containing 1× buffer (10×), 3.5 mM MgCl2, 200 μM dNTPs, 0.3 μM of sense and antisense primers, 0.025 U enzyme and 1:66000 SYBR GreenI®. All reactions were made using gPCR™ Core Kit for SYBR Green I® (Eurogentec). At the end of each reaction, the cycle threshold (CT) was manually setup at the level that reflected the best kinetic PCR parameters, and melting curves were acquired and analysed. Absolute values for the gene of interest were calculated from standard curves generated using serially diluted plasmid cloned and sequence verified template (ng DNA) and were normalized to the housekeeping gene 18S rRNA.

cartilage = conditions: in vitro, cited from earlier work

Compound	integration between disc and core cartilages ([1]; 10 ng/ml for 24 hours, unsupplemented culture medium, cultured for a further 2 weeks (FIG. 1A))	chondrocyte migration in the interfacial matrix ([1]; 25 ng/ml IL1β for 2 hours, then 4 weeks culture, high power histology (FIG. 9))	integration, assessed qualitatively through retention of matrix integrity (safranin-O histology) ([1]; 25 ng/ml IL1β for 2 hours, then 4 weeks serum-free culture with ITS (FIG. 8))	force to push out the explant from the disc versus untreated explants [2]	increase in MMP13 gene expression (MMP13 gene expression; 25 ng/ml IL1β, 2 hours, P>0.116, n=3 (FIG. 3)) [fold]	MMP13 gene expression, effect of increasing concentrations (MMP13 gene expression; 12.5-100 ng/ml for 2 hours)	cartilage integration (cartilage; 1 pg/ml or 100 pg/ml, 14 days)	cartilage integration (cartilage; 10 pg/ml, incubation of the cartilage for 14 days)	increase in MMP13 gene expression (MMP13 gene expression; 100 μM retinoic acid, 2 hour incubation, P<0.03, n=3 (FIG. 6))
IL1β: catabolic cytokine, member of the interleukin-1 superfamily	enhances integration	presence of migrating chondrocytes within the interfacial matrix	best achieved	almost six times more force	1.64	increase in MMP13 gene expression	not consistent	enhanced cartilage integration	
CC1=C(/C=C/C(C)=C/C=C/C(C)=C/C(=O)O)C(C)(C)CCC1 [Retinoic acid, reference compound]									approximately 3 fold
